Literature values in patent US20030170327A1, “Vitamin and zinc monomethionine compositions” (priority 2002, published 2003).

Settings: versus other forms of zinc found in nutritional supplements

- absorption in comparison to other forms of zinc: better absorbed
- retention in comparison to other forms of zinc: retained longer
Structure (SMILES): CSCC[C@H](N)C(=O)O.[Zn] [zinc monomethionine]
